{"source": "patent US9572786B2", "about": "“Use of capsiate or dihydrocapsidate” (Catholic University Industry Academy Cooperation Foundation, priority 2007, dated 2017)", "system": "Sprague dawley (SD) rats", "assay": "Retinal vascular permeability in streptozotocin induced diabetic retinopathy", "assay_type": "in vivo, rat", "settings": "intravitreally injected 1-week after streptozotocin, observed at 3 weeks with dextran FITC", "description": "Diabetes are induced by performing intraperitoneal injection of 60 mg/kg of streptozotocin (Sigma, St Louis, Mo., USA) into 8-week-old male Sprague dawley (SD) rats (250 g). 3 days later, serum glucose level was measured and rats having serum glucose level of […] and more are selected and used in experiments. Capsiate or capsaicin was intravitreally injected 1-week after the injection of streptozotocin, respectively. 3 weeks after the injection of streptozotocin, 0.5 ml of dextran FITC (25 mg/ml, MW 40K, Sigma, St Louis, Mo., USA) was injected through tail vein of tested rats to imaging retinal vascular pattern. Retinal tissues of the rats are isolated and observed by fluorescent microscopy (Olympus, Tokyo, Japan). The increase of retinal vascular permeability is observed in nonproliferative diabetic retinopathy, proliferative diabetic retinopathy and diabetic macular edema and result from cracks in vascular vessel due to breakdown of blood-retinal barrier (BRB).", "data": [{"compound": "COc1cc(CNC(=O)CCCC/C=C/C(C)C)ccc1O", "note": "[Capsaicin, capsaicin, reference compound]", "values": [{"measurement": "increment of retinal vascular permeability", "value": "does not effect"}]}]}
